From paper PMC4645160, “Targeting kinases with anilinopyrimidines: discovery of N-phenyl-N’-[4-(pyrimidin-4-ylamino)phenyl]urea derivatives as selective inhibitors of class III receptor tyrosine kinase subfamily” (Scientific Reports, 2015)
Where “and” joins values, the source holds several entries; their conditions need not be identical. Equal values may be shown once.

Assays:
[1] = MTD studies (highest not toxic dose); type: in vivo; conditions: daily ip
[2] = system: Lewis Lung Carcinoma (LLC); test: In vivo anticancer activity toward Lewis Lung Carcinoma (LLC); conditions: LLC in C57BL mice, 27 at 7.5 mg/kg, CDDP at 1.5 mg/kg
Text: (§1) Besides, it was as cytotoxic as 19 towards cancer cells while showing a more favorable selectivity index. On these basis, compound 27 was chosen for in vivo experiments against a syngeneic murine solid tumor model, the murine Lewis Lung Carcinoma (LLC). The tumor growth inhibition induced by 27 was compared with that promoted by cisplatin (CDDP), the most common chemotherapeutic drug used in the treatment of lung cancers. Nine days after tumor inoculation, tumor-bearing mice were randomized into vehicle control and treatment groups (8 mice per group). Control mice received the vehicle (0.2%v/v EtOH and 99.8%v/v of a saline solution), whereas treated groups received daily doses of 27 (7.5 mg · kg^−1 in the vehicle solution composed of 0.2%v/v EtOH and 99.8%v/v of saline solution) or CDDP (1.5 mg · kg^−1 in saline solution). Tumor growth was estimated at day 20 (Fig. 7a). As an indication of the adverse side effects, changes in the body weights of tumor-bearing mice were monitored at day 1 and daily from day 9.
Figure 7 In vivo testing of compound 27. Lewis lung carcinoma (LLC) was implanted i.m. (2 · 10^6 cells inoculum) into the right hind leg of 8-week old imbred C57BL mice. Nine days after tumor inoculation (palpable tumor), tumor-bearing mice were randomized into vehicle control and treatment groups (8 mice per group). Compound 27 was dosed daily at 7.5 mg/kg ip and CDDP was dosed daily at 1.5 mg/kg ip. At day 20, animals were sacrificed (i.e., before tumor can cause the animal discomfort), the legs were amputated at the proximal end of the femur, and the inhibition of tumor growth was determined according to the difference in weight of the tumor-bearing leg and the healthy leg of the animals expressed as % referred to the control animals. Control was constituted by vehicle (0.2%v/v EtOH and 99.8%v/v of saline solution). CDDP was used as positive reference. Both 27 and CDDP were administered at the highest not toxic doses (7.5 and 1.5 mg/kg, respectively), as determined by MTD studies. (a) Average tumor weight (g) after 20 days of treatment with control or compounds. (b) Percentage of reduction in tumor growth after 20 days of treatment with respect to control mice. (c) Body weight changes. The body weight changes of LLC bearing C57BL mice treated with vehicle or tested compounds. Each drug was administered daily after 9 days from the tumor cell inoculum. Weights were measured at day 1 and daily from day 9. Error bars indicate the standard deviation.
All studies involving animal testing were carried out in accordance with the ethical guidelines for animal research adopted by the University of Padua, acknowledging the Italian regulation (D.L.G.S. 116/92) and European Directive 86/609/EEC as to the animal welfare and protection and the related codes of practice. […]

[3] = Body weight changes of LLC bearing mice; type: in vivo; conditions: mouse, in vivo, ip, 1.5 mg/kg
Text: as §1, with “Control mice received the vehicle (0.2%v/v EtOH and 99.8%v/v of a saline solution), whereas treated groups received daily doses of 27 (7.5 mg · kg^−1 in the vehicle solution composed of 0.2%v/v EtOH and 99.8%v/v of saline solution) or CDDP (1.5 mg · kg^−1 in saline solution). Tumor growth was estimated at day 20 (Fig. 7a).” left out
Figure 7 In vivo testing of compound 27. […] At day 20, animals were sacrificed (i.e., before tumor can cause the animal discomfort), the legs were amputated at the proximal end of the femur, and the inhibition of tumor growth was determined according to the difference in weight of the tumor-bearing leg and the healthy leg of the animals expressed as % referred to the control animals. […] Both 27 and CDDP were administered at the highest not toxic doses (7.5 and 1.5 mg/kg, respectively), as determined by MTD studies. […] Weights were measured at day 1 and daily from day 9. […]

EGFR = biological target: T1, EGFR (Homo sapiens, UniProt P00533); test: KinomeScan primary screening (POC) at 10 μM, EGFR; type: binding; conditions: POC values
T1 construct: purchased DiscoverX (KinomeScan, ScanEDGE subset)
T1 sequence (P00533 25-1210): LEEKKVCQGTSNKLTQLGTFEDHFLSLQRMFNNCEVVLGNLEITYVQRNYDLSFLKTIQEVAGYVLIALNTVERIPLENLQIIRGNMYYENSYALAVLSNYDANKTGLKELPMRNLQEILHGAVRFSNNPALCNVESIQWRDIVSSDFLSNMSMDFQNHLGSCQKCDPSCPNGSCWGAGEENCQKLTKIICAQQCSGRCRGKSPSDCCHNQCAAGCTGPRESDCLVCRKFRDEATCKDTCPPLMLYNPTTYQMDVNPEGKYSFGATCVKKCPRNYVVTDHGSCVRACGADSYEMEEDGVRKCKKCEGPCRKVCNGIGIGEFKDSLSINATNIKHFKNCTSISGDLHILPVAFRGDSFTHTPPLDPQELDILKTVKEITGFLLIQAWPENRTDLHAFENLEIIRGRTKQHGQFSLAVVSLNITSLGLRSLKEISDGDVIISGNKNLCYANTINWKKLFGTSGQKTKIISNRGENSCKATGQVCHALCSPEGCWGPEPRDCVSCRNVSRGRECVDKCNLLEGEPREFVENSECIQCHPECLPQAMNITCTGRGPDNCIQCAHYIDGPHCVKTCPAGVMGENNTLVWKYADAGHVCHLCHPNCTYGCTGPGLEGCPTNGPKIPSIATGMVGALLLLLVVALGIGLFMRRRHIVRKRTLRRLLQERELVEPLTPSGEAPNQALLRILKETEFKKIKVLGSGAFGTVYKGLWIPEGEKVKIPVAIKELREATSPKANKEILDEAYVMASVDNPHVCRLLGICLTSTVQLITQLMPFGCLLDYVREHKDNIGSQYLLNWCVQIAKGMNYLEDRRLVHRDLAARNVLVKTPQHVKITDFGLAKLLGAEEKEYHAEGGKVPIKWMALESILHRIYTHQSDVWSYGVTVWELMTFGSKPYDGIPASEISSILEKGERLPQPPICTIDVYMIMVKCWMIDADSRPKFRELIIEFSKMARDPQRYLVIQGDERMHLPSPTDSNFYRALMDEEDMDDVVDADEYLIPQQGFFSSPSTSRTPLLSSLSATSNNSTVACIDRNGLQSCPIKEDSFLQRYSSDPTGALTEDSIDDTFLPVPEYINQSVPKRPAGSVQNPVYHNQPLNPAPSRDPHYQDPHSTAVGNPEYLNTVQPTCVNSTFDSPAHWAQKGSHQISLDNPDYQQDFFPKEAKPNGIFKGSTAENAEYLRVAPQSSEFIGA
Procedure: Synthesized compounds were screened against a panel of 48 kinases selected within the ScanEDGE subset of DiscoverX (http://www.discoverx.com/services/drug-discovery-development-services/kinase-profiling/kinomescan/scanedge). The ScanEDGE includes 97 kinases and is an economical approach to assess compounds selectivity throughout the human kinome. All the wt-TKs along with some relevant mutants of Abl1 (T315I) and of EGFR (L858R and L858R/T790M) were chosen. […]
The compounds were evaluated using the KinomeScan™ platform (http://www.discoverx.com/services/drug-discovery-development-services/kinase-profiling/kinomescan), that measures the ability of the test compound to disrupt the complex between a high affinity ATP-mimic probe immobilized on a solid support and the kinase of interest. […] The POC is calculated as reported in equation (1): […]
(§2) The compounds were tested at high concentration (10 μM), in order to highlight not only the main target but also the off-targets. The results of the preliminary screening are reported as heat map (Fig. 4; see also Table S4 for all the measured values), in which the compounds are grouped on the basis of the 6 or 5 substituent at the pyrimidine ring.

panel of 48 kinases = test: KinomeScan primary screening (POC) at 10 μM; type: binding, human; conditions: POC values
Text: Synthesized compounds were screened against a panel of 48 kinases selected within the ScanEDGE subset of DiscoverX (http://www.discoverx.com/services/drug-discovery-development-services/kinase-profiling/kinomescan/scanedge). The ScanEDGE includes 97 kinases and is an economical approach to assess compounds selectivity throughout the human kinome. All the wt-TKs along with some relevant mutants of Abl1 (T315I) and of EGFR (L858R and L858R/T790M) were chosen. The remaining 18 targets (3 Tyrosine Kinases-Like, TKLs; 15 Serine-Threonine Kinases, STKs) were selected among the remaining kinases in the ScanEDGE subset on the basis of their well established role in cancer (see Fig. S2 for a graphical representation of the selected kinases with reference to the kinome tree. Some references highlighting the role of each kinase in cancer are also reported in Table S3).
The compounds were evaluated using the KinomeScan™ platform (http://www.discoverx.com/services/drug-discovery-development-services/kinase-profiling/kinomescan), that measures the ability of the test compound to disrupt the complex between a high affinity ATP-mimic probe immobilized on a solid support and the kinase of interest. The KinomeScan is a very helpful technology for the fast and reliable screening of a number of compounds against a wide and customizable panel of kinases. Besides, it is not based on the use of hazardous radioactive ^32P-ATP and has a very low rate of false positive (<1%)[44]. The screening platform outputs a “Percent of Control” (POC) value, statistically correlated to the dissociation constant (Kd) value (http://www.discoverx.com/tools-resources/leadhunter-study-reports-data-analysis), for each pair of kinase/ligand. The POC is calculated as reported in equation (1):
Where: test compound signal = amount of kinase still binding the probe after treatment with test compound; negative control signal = amount of kinase still binding the probe after treatment with DMSO (100% control); positive control signal = amount of kinase still binding the probe after treatment with control compound (0% control).
as §2

HEK293 cells = test: MTT cytotoxicity assay, non-tumor HEK293 cells; type: cell-based, human
Procedure: F. Zunino (Division of Experimental Oncology B, Istituto Nazionale dei Tumori, Milan, Italy).
The growth inhibitory effect towards human cell lines was evaluated by means of MTT (tetrazolium salt reduction) assay. […] Triplicate cultures were established for each treatment.

A549 cells = test: MTT cytotoxicity assay, A549 lung cancer cells; type: cell-based, human
Procedure: (§3) Compounds active against at least one kinase among EGFR and class III RTKs were evaluated for their cytotoxic properties against two different human cancer cell lines, namely non small cells A549 lung cancer cells (sensitive to EGFR inhibitors)[46] and pancreatic BxPC3 adenocarcinoma (sensitive to both PDGFRβ and EGFR inhibitors)[47][48] cells. […] The results, expressed as IC50 values (μM) calculated from the dose-survival curves obtained after 72 h of drug treatment from the MTT test, are reported in Table 1.
(§4) All compounds, except derivative 27, were dissolved in DMSO just before the experiment, and a calculated amount of drug solution was added to the cell growth medium to a final solvent concentration of 0.5%, which had no discernible effect on cell killing. Compound 27 was dissolved in a 0.9% NaCl solution just before the experiment.
(§5) Human lung (A549), breast (MCF-7), pancreas (BxPC3), and colon (LoVo) carcinoma cell lines along with melanoma (A375) were obtained from American Type Culture Collection (ATCC, Rockville, MD). Human non-tumor embryonic kidney HEK293 cells were obtained from European Collection of Cell Cultures (ECACC, Salisbury, UK). Human cervical carcinoma A431cells were kindly provided by Prof. F. Zunino (Division of Experimental Oncology B, Istituto Nazionale dei Tumori, Milan, Italy). Human ovarian cancer 2008 cells were kindly provided by Prof. G. Marverti (Dept. of Biomedical Science of Modena University, Italy). Cell lines were maintained in the logarithmic phase at 37 °C in a 5% carbon dioxide atmosphere using the following culture media containing 10% fetal calf serum (Euroclone, Milan, Italy), antibiotics (50 units ∙ mL^−1 penicillin and 50 μg ∙ mL^−1 streptomycin) and 2 mM l-glutamine: i) RPMI-1640 medium (Euroclone) for MCF-7, A431, BxPC3 and 2008 cells; ii) F-12 HAM’S (Sigma Chemical Co.) for A549 and LoVo cells; iii) D-MEM medium (Euroclone) for HEK293 cells.
(§6) The growth inhibitory effect towards human cell lines was evaluated by means of MTT (tetrazolium salt reduction) assay. Briefly, 3–8 ∙ 10^3 cells/well, dependent upon the growth characteristics of the cell line, were seeded in 96-well microplates in growth medium (100 μL) and then incubated at 37 °C in a 5% carbon dioxide atmosphere. After 24 h, the medium was removed and replaced with a fresh one containing the test compound at the appropriate concentration. Triplicate cultures were established for each treatment. After 72 h, each well was treated with 10 μL of a 5 mg ∙ mL-1 MTT (3-(4,5-dimethylthiazol-2-yl)-2,5-diphenyltetrazolium bromide) saline solution, and after 5 h additional incubation, 100 μL of a sodium dodecylsulfate (SDS) solution in HCl 0.01 M were added. After overnight incubation, the inhibition of cell growth induced by the tested complexes was detected by measuring the absorbance of each well at 570 nm using a Bio-Rad 680 microplate reader (Bio-Rad, Hercules, CA). Mean absorbance for each drug dose was expressed as a percentage of the control untreated well absorbance and plotted vs drug concentration.

BxPC3 cells = test: MTT cytotoxicity assay, BxPC3 pancreatic adenocarcinoma cells; type: cell-based, human
Procedure: as §3, §4, §5, §6

For `[NH2][Pt]([NH2])([Cl])[Cl]` [CDDP, cisplatin, reference compound], the “Highest not toxic dose as determined by MTD studies” value [1] was 1.5 mg/kg, the “Inhibition of tumor growth (%)” value ([2]; daily ip from day 9, day 20, versus vehicle control) was 71.63% and 71.6% and the “Average tumor weight (mean±S.D., g)” value ([2]; daily ip from day 9, day 20) was 0.139 ± 0.09 g. The “Body weight loss (in words)” value [3] was “elevated body weight loss”.

In the case of `O=C(Nc1ccccc1)Nc1ccc(Nc2cc(Nc3ccccc3)ncn2)cc1` [Compound 7], the “Activity against EGFR in primary screening” value (EGFR) is reported as “very poor activity”, the “Selectivity profile (kinases targeted) in primary screening” value (panel of 48 kinases) is reported as “class III RTK” and the IC50 (HEK293 cells; Homo sapiens, HEK293, MTT test, 72 h, non-tumor cells, read-out: HEK293 IC50 (μM) ± SD) is reported as 3.14 ± 0.57 µM. The “Selectivity Index” value (HEK293 cells; IC50 toward non cancerous HEK293 cells divided by the average IC50 for the malignant cells (A549, BxPC3)) was 0.64, the IC50 (A549 cells; Homo sapiens, A549, 72 h, MTT test, 72 h of drug treatment, read-out: A549 IC50 (μM) ± SD) was 5.13 ± 0.94 µM and the “Potency relative to SU (A549)” value (A549 cells; ratio between IC50 of sunitinib and IC50 of tested compound, A549) was 1.21. For the same molecule, the IC50 (BxPC3 cells; Homo sapiens, BXPC-3, MTT test, 72 h of drug treatment, read-out: BxPC3 IC50 (μM) ± SD) was 4.6 ± 0.85 µM and the “Potency relative to SU (BxPC3)” value (BxPC3 cells; ratio between IC50 of sunitinib and IC50 of tested compound, BxPC3) was 1.10.
